Measurements as given in patent publication US20180117644A1, “METHOD FOR WASHING SEVOFLURANE STORAGE CONTAINER AND METHOD FOR STORING SEVOFLURANE” (CENTRAL GLASS COMPANY, LIMITED, priority 2016, published 2018).
Where two headings read alike, the source gives them in different places.

Tests used:
[1] = Degradation of sevoflurane (severe testing) with alumina, gas chromatographic composition; type: physicochemical; settings: sevoflurane with moisture 6 ppm, alumina 50 mg, 50° C., 64 hours, after third water washing
Method: In Example 1, sevoflurane was treated under conditions more stringent than actual sevoflurane storage conditions so that “polyether” was forcibly generated. Specifically, according to the disclosure of Patent Literature 5, the water content of sevoflurane was adjusted to be lower than that of sevoflurane obtained as a final product (6 ppm). Further, sevoflurane was heated to 50° C. under the presence of oxidized aluminium (alumina) serving as Lewis acid (i.e., a substance that is considered to catalyze sevoflurane degradation in Patent Literature 5). As a result, a portion of sevoflurane was degraded into polyether, resulting in generation of “sevoflurane containing polyether” in the system. It was attempted to wash the obtained “sevoflurane containing polyether” with water.
Sevoflurane (used as a pharmaceutical product) (100 cm^3) was placed in a erlenmeyer flask and cooled to 10° C. in a refrigerator. Then, synthetic zeolite was introduced into the erlenmeyer flask so that the weight ratio of synthetic zeolite:sevoflurane became 1:4. Next, the erlenmeyer flask was allowed to stand still in a refrigerator at 10° C. for 2 hours and 30 minutes for drying of sevoflurane (reduction of water content).
Alumina (50 mg) was placed in a 50-cm^3 brown bottle with a narrow mouth. Sevoflurane having a moisture content of 6 ppm prepared in (1-1) (20 cm^3, 29.9 g) was added thereto.
Next, the cap of the brown bottle with a narrow mouth was closed and the bottle was heated in a thermostatic bath at 50° C. for 64 hours. After heating for 64 hours, the bottle was cooled in a refrigerator (10° C.) for 1 hour.
As the sevoflurane obtained as a result of severe testing in (1-2) contained hydrogen fluoride (HF), water washing (back extraction of HF into an aqueous phase) was conducted for the ease of handling. Specifically, the sevoflurane subjected to severe testing and water (15 cm^3) were introduced into a separatory funnel made of tetrafluoroethylene, stirred for 1 minute, and allowed to stand still for 1 minute, followed by liquid separation. Then, the aqueous phase was collected and pH was checked using a pH test paper.
Meanwhile, after the third water washing, the gas chromatographic composition of the organic phase was detected as follows: sevoflurane: about 87%; polyether 1: 8.4% (84000 ppm); and polyether 2: 4.0% (40000 ppm). In addition, 190 ppm of hexafluoroisopropyl alcohol (HFIP) was detected.

[2] = Moisture content of liquid sevoflurane stored with dry nitrogen in autoclave (Karl Fischer); type: physicochemical
Method: A 1-dm^3 autoclave (SUS304) used as a sevoflurane storage container was filled with dry nitrogen. Liquid sevoflurane (i.e., a sevoflurane product containing 400 ppm of water) (30 g) was added thereto. The autoclave was hermetically closed and stored at room temperature for 1 month. Then, moisture content was measured using a Karl Fischer moisture meter. […] The liquid sevoflurane was stored for another month in the autoclave in the same manner. Then, the moisture content was measured again.

[3] = cited from earlier work
[4] = as disclosed in Patent Literature 5; cited from earlier work

FCOC(C(F)(F)F)C(F)(F)F [sevoflurane, Fluoromethyl-1,1,1,3,3,3-hexafluoroisopropyl ether]
gas chromatographic composition of the organic phase: polyether 1 [1]: 8.4% | gas chromatographic composition of the organic phase: polyether 2 [1]: 4.0% | gas chromatographic composition of the organic phase: sevoflurane [1]: about 87% | hexafluoroisopropyl alcohol (HFIP) detected in the organic phase [1]: 190 ppm | moisture content ([2]; product containing 400 ppm of water, 30 g in 1-dm^3 autoclave (SUS304) filled with dry nitrogen, room temperature, 1 month): 360 ppm | moisture content ([2]; same storage, another month (2 months in total)): 350 ppm | vapor pressure ([3]; 25° C.): about 0.026 MPa | vapor pressure ([3]; 35° C.): about 0.041 MPa | vapor pressure ([3]; 45° C.): about 0.061 MPa | upper limit of the amount of water that can be mixed with sevoflurane [4]: about 1400 ppm
